Experimental data: patent publication US20070060636A1, “High enantiomeric purity dexanabinol for pharmaceutical compositions” (priority 2002, published 2007)

Columns and labels:
[1] = 14-day multiple dose pharmacokinetic/toxicity study, rabbit; type: in vivo, rabbits; conditions: for AUC(0-inf) / Cmax: plasma, 25 mg/kg i.v. daily, final dose Day 14 (NOAEL); for AUC∞ Ratio to Phase I / Cmax Ratio to Phase I / AUC∞ Ratio to Phase II / Cmax Ratio to Phase II: 25 mg/kg Day 14; for AUC∞ Ratio to Phase I / Cmax Ratio to Phase I: vs human 150 mg Phase I; for AUC∞ Ratio to Phase II / Cmax Ratio to Phase II: vs human 150 mg Phase II
Method: The pharmacokinetics of dexanabinol of high enantiomeric purity formulated in CREMOPHOR EL®:ethanol as described in Example 4 were investigated in rats, rabbits, and monkeys following intravenous administration of single doses, and 14 and 28 days of repeated dosing. Human pharmacokinetics was studied during Phase I and Phase II clinical studies. Dexanabinol used in the pharmacokinetic studies was formulated as drug concentrates of 50 and 100 mg/ml and diluted with sterile 0.9% NaCl solution prior to intravenous (i.v.) administration to the desired final doses. Determination of dexanabinol concentrations in plasma and brain extracts was carried out using a validated Gas Chromatography-Mass Spectra (GC-MS) assay following solid phase extraction of the drug and derivatization. The limit of quantitation of the assay is 0.1 ng/ml.
Pharmacokinetic parameters were estimated by a non-compartmental method using WinNonlin Professional version 3.2 (Pharsight Corp., Mountain View, Calif.). The maximum plasma concentration (Cmax), when the drug is administered by infusion, is the concentration at the end of infusion. The Cmax following intravenous bolus administration is the value estimated by the software to be the concentration at t=0. The terminal slope (X) was estimated by linear regression through the last time points and used to calculate the terminal half-life (t1/2) from the following equation: t1/2=0.693/λ The area under the curve from time of dosing through the last time point (AUCz) was calculated by the linear trapezoid method. The AUC extrapolated to infinity (AUC∞) was calculated from the following equation: AUC∞=AUCz+Cz/λ where Cz is the concentration at the last time point predicted by the linear regression. AUC∞ was normalized for dose (mg/kg) and presented as AUC∞/Dose. Mean residence time (MRT), when the drug is administered by infusion is described by the following equation: MRT=(AUMC/AUC)−(TI)/2 Mean residence time after i.v. bolus administration is described by the following equation: MRT=(AUMC/AUC) where AUMC is the area under the first moment curve and TI is the length of infusion. Plasma clearance (CL), and the apparent volume of distribution at steady state (Vss) were calculated from the following equations: CL=Dose/AUC∞ Vss=MRT×CL
In 14-day multiple dose pharmacokinetic studies, the NOAEL was 15 mg/kg/day in rats and 25 mg/kg/day in rabbits. In a 28-day study in monkeys the NOAEL was 25 mg/kg/day. Cmax and AUC observed following the last dose at the NOAEL in the multiple dose toxicity studies and the ratios of these values to those observed in the Phase I and II studies for the 150 mg dose are shown in Table 7.

[2] = system: inflammatory bowel disease (IBD) model; experiment: IBD induced by rectal 5% acetic acid solution; type: in vivo, Sprague Dawley male rats
Method: The pharmacological activity of dexanabinol of high enantiomeric purity in enema formulation was also tested and compared to oral and i.p. formulations, wherein oral delivery was performed using a hard gelatin capsule and i.p. delivery was performed using the CREMOPHOR EL®:ethanol formulation. IBD was induced in Sprague Dawley male rats, by rectal administration of a 5% acetic acid solution. The rectum was then washed with saline and animals were clinically observed (body weight, stool consistency and blood in stool) daily for 7 days. On the eighth day, the animals were sacrificed, their colon opened and gross pathology lesions were recorded (hyperemia, edema, number of erosions, ulcers, perforations and adhesions). Animals, at least six per group, were treated rectally (by enema) with either dexanabinol (5, 10, 20 or 40 mg/kg/day) or its vehicle or by oral gavage (20, 40, or 80 mg/kg/day or vehicle). Administration of acetic acid caused a decrease in body weight (up to 20%), changes in stool consistency (diarrhea) and appearance of blood in the stool 24 hours later. Spontaneous clinical healing was detected as animals regained weight and blood was no more evident in the stool. In the gross pathology scale, rectal dexanabinol 10 mg/kg had the best effect (more than 50% reduction of score) compared to its vehicle (p<0.05). […] The rectal dexanabinol dose of 10 mg/kg was pharmacologically equivalent to 20 mg/kg i.p. dose and 80 mg/kg oral dose.

[3] = both sexes, iv, rabbit male & female

Structure (SMILES): CCCCCCC(C)(C)c1cc(O)c2c(c1)OC(C)(C)[C@H]1CC=C(CO)C[C@H]21 [dexanabinol, 1,1-dimethylheptyl-(3S,4S)-7-hydroxy-Δ^6-tetrahydrocannabinol]
- AUC(0-inf) [1, 3]: 67.7 µg·h/mL
- Cmax [1, 3]: 132 µg/mL
- AUC(0-inf) ([1]; iv, rabbit female): 67.9 µg·h/mL
- Cmax ([1]; iv, rabbit female): 115 µg/mL
- AUC(0-inf) ([1]; iv, rabbit male): 67.7 µg·h/mL
- Cmax ([1]; iv, rabbit male): 150 µg/mL
- AUC∞ Ratio to Phase I ([1]; rabbit female): 21.2
- Cmax Ratio to Phase I ([1]; rabbit female): 23.0
- AUC∞ Ratio to Phase II ([1]; rabbit female): 45.8
- Cmax Ratio to Phase II ([1]; rabbit female): 58.6
- AUC∞ Ratio to Phase I ([1]; rabbit male & female): 21.1
- Cmax Ratio to Phase I ([1]; rabbit male & female): 26.4
- AUC∞ Ratio to Phase II ([1]; rabbit male & female): 45.6
- Cmax Ratio to Phase II ([1]; rabbit male & female): 67.2
- AUC∞ Ratio to Phase I ([1]; rabbit male): 21.1
- Cmax Ratio to Phase I ([1]; rabbit male): 29.9
- AUC∞ Ratio to Phase II ([1]; rabbit male): 45.6
- Cmax Ratio to Phase II ([1]; rabbit male): 76.0
- NOAEL at 14 days ([1]; rabbit, in vivo, iv, 14-day multiple dose i.v.): 25 mg/kg/day
- i.p. dose pharmacologically equivalent to rectal dose of 10 mg/kg ([2]; i.p., CREMOPHOR EL:ethanol formulation): 20 mg/kg
- oral dose pharmacologically equivalent to rectal dose of 10 mg/kg ([2]; oral): 80 mg/kg
- clinical disease severity compared to the vehicle ([2]; rectal 10 mg/kg): reduced also the clinical disease severity
- reduction of gross pathology score compared to vehicle ([2]; rectal (enema) 10 mg/kg, p<0.05): more than 50%
